Measured values: US11214572B2, “7-site substituted pyrrole triazine compounds or pharmaceutically acceptable salts thereof, and preparation method thereof and uses thereof” (SHANGHAI INSTITUTE OF MATERIA MEDICA, CHINESE ACADEMY OF …, priority 2017, dated 2022)
“And” between values parts separate entries of the source, which are not always exact repeats. Identical values can stand only once. “Also recorded” adds a separate entry of the source. Like-named read-outs stand apart in the source and are kept apart here.

Key:
[1] = Preliminary pharmacokinetic test, intragastric administration; type: in vivo, SD rats; settings: rats, 10 mg/kg versus 5 mg/kg intravenous; monomesylate
Procedure: (§1) 1. 14 healthy SD rats, male, weigh 200-220 g, were taken to be randomly divided into 4 groups, 3-4 in each group, and were administered the tested compound P-17 and compound CYH33 (compared with compound P-17, missing a methyl group on 7-position) via intragastric administration (10 mg/kg) and intravenous injection (5 mg/kg) respectively, the specific arrangements are shown in the following table 3:
(§2) The rats were fasted for 12 h before experiment, water was taken freely. The rats were fed 2 h after dosing.
Dosing via intragastric administration: 0.25 h, 0.5 h, 1.0 h, 2.0 h, 3.0 h, 4.0 h, 6.0 h, 8.0 h, and 24 h after dosing.
(§3) At the above setting time points, 0.3 ml of venous blood was taken from the retroorbital venous plexus of the rat, and placed in a heparinized test tube, centrifuged at 11,000 rpm for 5 min, then the plasma was separated, and frozen in a refrigerator at −20° C.
(§4) LC/MS/MS method was used to determine the concentration of the compounds in the plasma of rats.
(§5) The non-compartment model of Phoenix 1.3 software (Pharsight Corporation, USA) was used to calculate the pharmacokinetic parameters after dosing.

[2] = Preliminary pharmacokinetic test, intravenous injection; type: in vivo, SD rats; settings: rats, intravenous injection 5 mg/kg, tested as monomesylate
Procedure: as §1, §2
Dosing via intravenous: 5 min, 0.25 h, 0.5 h, 1.0 h, 2.0 h, 4.0 h, 6.0 h, 8.0 h, and 24 h after dosing.
as §3, §4, §5

[3] = target: PI3Kβ (Homo sapiens, UniProt P42338); experiment: PI3K kinase activity, β isoform; settings: for inhibition at 0.1 µM: read-out: IH (%) @ 100 nM, β;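 for all read-outs here: kinase reaction containing 1% DMSO, read as an emission ratio, with inhibition scaled between the 0% and 100% control ratios. IC50 values come from a ten-point fourfold dilution series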
Chain of PI3Kβ (P42338 whole entry, canonical isoform): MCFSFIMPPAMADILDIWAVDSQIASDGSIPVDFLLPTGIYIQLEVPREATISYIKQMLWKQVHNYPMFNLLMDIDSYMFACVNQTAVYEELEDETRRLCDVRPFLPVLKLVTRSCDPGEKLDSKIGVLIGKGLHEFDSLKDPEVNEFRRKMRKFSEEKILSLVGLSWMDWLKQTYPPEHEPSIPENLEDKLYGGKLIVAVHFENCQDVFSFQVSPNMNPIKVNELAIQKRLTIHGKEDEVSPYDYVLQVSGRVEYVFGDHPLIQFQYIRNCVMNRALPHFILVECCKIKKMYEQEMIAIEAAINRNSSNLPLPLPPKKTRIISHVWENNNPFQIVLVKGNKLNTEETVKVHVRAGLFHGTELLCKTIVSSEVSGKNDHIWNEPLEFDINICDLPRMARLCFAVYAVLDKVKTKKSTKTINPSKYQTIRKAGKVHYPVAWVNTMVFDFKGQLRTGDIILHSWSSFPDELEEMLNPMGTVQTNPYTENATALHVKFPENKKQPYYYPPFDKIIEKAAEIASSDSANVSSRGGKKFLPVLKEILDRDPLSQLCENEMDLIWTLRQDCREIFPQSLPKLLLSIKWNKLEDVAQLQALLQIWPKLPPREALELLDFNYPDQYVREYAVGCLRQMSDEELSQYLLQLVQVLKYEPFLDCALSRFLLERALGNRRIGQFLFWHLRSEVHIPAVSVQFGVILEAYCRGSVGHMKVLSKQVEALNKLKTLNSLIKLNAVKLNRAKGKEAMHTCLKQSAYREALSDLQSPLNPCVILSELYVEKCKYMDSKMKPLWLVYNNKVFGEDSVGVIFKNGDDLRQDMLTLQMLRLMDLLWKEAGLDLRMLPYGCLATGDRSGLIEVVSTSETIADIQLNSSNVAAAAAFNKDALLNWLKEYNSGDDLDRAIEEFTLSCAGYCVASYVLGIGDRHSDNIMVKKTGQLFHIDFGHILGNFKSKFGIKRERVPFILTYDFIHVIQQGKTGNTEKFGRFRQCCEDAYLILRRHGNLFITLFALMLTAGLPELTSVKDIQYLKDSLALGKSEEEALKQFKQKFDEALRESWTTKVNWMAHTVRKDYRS
Chain of PI3Kβ (P27986 whole entry partner, canonical isoform): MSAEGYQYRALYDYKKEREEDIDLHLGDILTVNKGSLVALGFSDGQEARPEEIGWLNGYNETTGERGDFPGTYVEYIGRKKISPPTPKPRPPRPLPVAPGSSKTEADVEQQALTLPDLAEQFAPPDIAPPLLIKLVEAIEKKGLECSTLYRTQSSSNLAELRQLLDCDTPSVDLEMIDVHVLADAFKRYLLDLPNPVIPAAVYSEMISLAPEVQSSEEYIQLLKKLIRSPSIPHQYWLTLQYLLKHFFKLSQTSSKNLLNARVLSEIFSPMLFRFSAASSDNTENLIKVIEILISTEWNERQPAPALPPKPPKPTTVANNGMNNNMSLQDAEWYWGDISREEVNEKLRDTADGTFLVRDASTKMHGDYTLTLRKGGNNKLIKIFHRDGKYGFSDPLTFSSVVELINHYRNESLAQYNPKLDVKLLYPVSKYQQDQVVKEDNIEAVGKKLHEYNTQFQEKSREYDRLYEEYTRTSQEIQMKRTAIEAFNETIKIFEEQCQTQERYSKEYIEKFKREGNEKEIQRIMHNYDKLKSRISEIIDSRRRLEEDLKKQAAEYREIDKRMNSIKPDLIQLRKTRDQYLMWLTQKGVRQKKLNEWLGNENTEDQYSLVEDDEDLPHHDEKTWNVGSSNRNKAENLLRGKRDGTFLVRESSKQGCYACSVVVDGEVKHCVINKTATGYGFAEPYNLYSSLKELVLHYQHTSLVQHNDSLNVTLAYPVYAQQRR
Procedure: (§6) Concentration setting for preliminary screening: the compounds to be tested were dissolved in DMSO (dimethyl sulfoxide) to 100 μM or 10 μM as storage solutions; for each one, 2 μL was taken to be added to 48 μL of 1× Reaction Buffer to obtain a 4 μM or 400 nM compound solution containing 4% DMSO. After well mixing, the mixture was diluted with 4% DMSO in 1× Reaction Buffer to obtain a 4 μM or 400 nM compound solution. 5 μL of each diluted solution was taken to be added to a 384-well plate, so that the final concentration of the compound in the final 20 μL of the kinase reaction system was 1 μM and 100 nM or 100 nM and 20 nM, respectively, and containing 1% DMSO.
(§7) The compounds to be tested were dissolved in DMSO to 1 mM or 10 mM as working solutions, 1 μL of each working solution was taken to be added to 24 μl of 1× Kinase Buffer A to obtain a 40 μM or 400 μM compound solution containing 4% DMSO. The compound solution was diluted by 4× gradient in sequence, 10 dilution concentrations.
(§8) Calculation of the Inhibition Rate • The inhibitory rate was calculated by the following formula: Inhibitory rate=(ERsample−ER0%)/(ER100%−ER0%)×100%

[4] = target: PI3Kγ (Homo sapiens, UniProt P48736); experiment: PI3K kinase activity, γ isoform; type: biochemical; settings: for inhibition at 0.1 µM: compound 100 nM, read-out: IH (%) @ 100 nM, γ;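 for all read-outs here: kinase reaction run in 384-well plates, with inhibition normalised between the 0% and 100% reference reactions. IC50 derived from a ten-point, fourfold serial dilution series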
Chain of PI3Kγ (P48736 whole entry, canonical isoform): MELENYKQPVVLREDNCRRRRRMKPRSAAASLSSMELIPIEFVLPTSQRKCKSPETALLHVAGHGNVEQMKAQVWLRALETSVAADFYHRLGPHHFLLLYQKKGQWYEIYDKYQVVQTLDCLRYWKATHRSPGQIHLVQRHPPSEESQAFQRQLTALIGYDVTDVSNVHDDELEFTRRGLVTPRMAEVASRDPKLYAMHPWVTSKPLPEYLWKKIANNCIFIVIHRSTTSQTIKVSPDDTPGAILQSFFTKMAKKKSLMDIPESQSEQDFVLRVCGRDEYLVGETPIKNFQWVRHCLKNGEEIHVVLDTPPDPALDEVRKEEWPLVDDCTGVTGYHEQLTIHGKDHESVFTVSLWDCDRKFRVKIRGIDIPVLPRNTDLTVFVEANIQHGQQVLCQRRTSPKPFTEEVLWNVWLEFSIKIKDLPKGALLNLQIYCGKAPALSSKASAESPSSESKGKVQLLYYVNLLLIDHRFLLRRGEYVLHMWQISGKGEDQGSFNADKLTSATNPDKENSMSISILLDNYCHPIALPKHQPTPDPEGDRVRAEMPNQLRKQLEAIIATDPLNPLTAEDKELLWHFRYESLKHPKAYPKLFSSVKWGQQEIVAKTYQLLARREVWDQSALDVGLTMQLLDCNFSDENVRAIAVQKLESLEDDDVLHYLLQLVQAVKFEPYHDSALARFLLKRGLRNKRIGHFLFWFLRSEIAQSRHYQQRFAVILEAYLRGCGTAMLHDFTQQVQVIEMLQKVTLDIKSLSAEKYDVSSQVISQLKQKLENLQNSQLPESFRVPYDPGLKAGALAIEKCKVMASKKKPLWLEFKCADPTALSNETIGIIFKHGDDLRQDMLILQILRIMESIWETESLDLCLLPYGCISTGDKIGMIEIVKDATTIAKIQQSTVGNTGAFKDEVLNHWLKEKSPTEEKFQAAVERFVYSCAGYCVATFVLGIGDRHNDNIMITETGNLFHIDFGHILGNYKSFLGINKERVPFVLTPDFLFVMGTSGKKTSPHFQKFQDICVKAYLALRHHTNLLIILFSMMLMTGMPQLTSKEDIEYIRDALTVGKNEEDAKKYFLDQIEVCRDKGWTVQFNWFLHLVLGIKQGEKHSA
Procedure: as §6, §7, §8

[5] = target: PI3Kδ (Homo sapiens, UniProt O00329); experiment: PI3K kinase activity, δ isoform; settings: for inhibition at 0.02 µM: read-out: IH (%) @ 20 nM, δ; for selectivity for PI3Kδ (in words): versus other PI3K isoforms, from Tables 1 and 2
Chain of PI3Kδ (O00329 whole entry, canonical isoform): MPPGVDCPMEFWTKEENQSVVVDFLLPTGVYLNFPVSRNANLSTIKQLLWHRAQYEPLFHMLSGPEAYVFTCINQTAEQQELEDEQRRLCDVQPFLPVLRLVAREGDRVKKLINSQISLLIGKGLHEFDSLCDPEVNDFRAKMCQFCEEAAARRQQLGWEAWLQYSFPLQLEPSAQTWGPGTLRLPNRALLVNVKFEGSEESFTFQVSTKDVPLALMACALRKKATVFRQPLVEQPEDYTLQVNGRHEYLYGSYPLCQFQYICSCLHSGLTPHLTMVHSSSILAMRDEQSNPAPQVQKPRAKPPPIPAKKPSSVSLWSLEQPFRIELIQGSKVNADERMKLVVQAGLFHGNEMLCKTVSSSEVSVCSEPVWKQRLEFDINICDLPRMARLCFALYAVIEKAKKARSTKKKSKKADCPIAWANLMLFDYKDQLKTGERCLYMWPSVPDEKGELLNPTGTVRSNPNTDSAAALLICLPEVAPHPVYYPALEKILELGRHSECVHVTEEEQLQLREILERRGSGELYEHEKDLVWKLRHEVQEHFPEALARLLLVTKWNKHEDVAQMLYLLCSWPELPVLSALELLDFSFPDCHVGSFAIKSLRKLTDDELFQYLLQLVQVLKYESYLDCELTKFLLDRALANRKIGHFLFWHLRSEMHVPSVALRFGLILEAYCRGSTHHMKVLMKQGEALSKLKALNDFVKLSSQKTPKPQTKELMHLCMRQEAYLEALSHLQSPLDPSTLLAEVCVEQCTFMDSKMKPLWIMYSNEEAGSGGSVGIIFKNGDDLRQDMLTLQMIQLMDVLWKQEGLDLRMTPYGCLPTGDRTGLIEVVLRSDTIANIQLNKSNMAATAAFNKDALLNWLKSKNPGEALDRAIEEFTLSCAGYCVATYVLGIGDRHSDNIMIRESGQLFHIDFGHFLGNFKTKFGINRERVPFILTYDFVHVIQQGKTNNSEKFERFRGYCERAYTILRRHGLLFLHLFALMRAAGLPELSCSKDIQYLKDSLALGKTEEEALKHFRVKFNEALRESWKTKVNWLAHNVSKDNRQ
Chain of PI3Kδ (P27986 whole entry partner, canonical isoform): as the sequence (P27986 whole entry partner, canonical isoform) above
Procedure: as §6, §7, §8

[6] = target: PI3Kα (Homo sapiens, UniProt P42336); experiment: PI3K kinase activity, α isoform; settings: for inhibition at 0.02 µM: read-out: IH (%) @ 20 nM, α
Chain of PI3Kα (P42336 whole entry, canonical isoform): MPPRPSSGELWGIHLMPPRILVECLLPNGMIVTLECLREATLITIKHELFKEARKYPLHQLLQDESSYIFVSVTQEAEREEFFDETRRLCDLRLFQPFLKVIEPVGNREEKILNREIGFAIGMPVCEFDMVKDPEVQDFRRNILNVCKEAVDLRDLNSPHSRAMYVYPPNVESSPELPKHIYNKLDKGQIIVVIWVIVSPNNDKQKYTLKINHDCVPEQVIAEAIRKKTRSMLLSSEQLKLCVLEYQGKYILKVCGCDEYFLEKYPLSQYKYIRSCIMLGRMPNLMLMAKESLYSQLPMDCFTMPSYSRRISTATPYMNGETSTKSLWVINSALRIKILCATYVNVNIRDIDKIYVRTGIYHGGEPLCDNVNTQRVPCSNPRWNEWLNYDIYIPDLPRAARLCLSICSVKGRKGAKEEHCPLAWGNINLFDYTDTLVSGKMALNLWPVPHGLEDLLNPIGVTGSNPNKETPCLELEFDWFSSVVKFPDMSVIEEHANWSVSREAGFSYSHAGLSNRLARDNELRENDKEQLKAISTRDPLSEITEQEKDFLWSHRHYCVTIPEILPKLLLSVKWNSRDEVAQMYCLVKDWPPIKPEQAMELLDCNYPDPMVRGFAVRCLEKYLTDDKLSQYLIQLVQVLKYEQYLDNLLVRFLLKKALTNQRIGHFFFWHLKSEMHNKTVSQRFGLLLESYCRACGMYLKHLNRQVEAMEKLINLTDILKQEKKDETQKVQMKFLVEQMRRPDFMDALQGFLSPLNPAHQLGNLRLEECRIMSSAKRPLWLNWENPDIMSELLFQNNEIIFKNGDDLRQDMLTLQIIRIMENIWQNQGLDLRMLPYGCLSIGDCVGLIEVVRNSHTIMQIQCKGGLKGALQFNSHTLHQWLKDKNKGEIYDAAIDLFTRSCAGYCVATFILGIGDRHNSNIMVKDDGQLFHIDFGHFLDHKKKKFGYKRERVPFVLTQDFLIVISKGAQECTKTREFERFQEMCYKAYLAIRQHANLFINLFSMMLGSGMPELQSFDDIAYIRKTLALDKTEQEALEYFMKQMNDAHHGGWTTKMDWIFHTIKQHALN
Chain of PI3Kα (P27986 whole entry partner, canonical isoform): as the sequence (P27986 whole entry partner, canonical isoform) above
Procedure: as §6, §7, §8

[7] = male, SD, rat, plasma, iv, 5 mg/kg, individual animal

| Compound | IC50 [3] [µM] | inhibition at 0.1 µM [3] [%] | IC50 [4] [nM] | inhibition at 0.1 µM [4] [%] | IC50 [5] [µM] | inhibition at 0.02 µM [5] [%] | IC50 [6] [µM] | inhibition at 0.02 µM [6] [%] | other results |
| --- | --- | --- | --- | --- | --- | --- | --- | --- | --- |
| COC(=O)Nc1cc(C(F)(F)F)c(-c2nc(N3CCOCC3)c3cc(CN4CCN(S(C)(=O)=O)CC4)cn3n2)cn1 [CYH33, reference compound] |  |  |  |  |  |  |  |  | F (absolute bioavailability) [1]: 36.9%; AUC(0-t) ([2]; male, SD, rat, plasma, iv, 5 mg/kg, Mean): 3540 ng·h/mL; MRT ([2]; male, SD, rat, plasma, iv, 5 mg/kg, Mean, read-out: MRT): 1.31 h; AUC(0-inf) [2, 7]: 2850 ng·h/mL; AUC(0-t) [2, 7]: 2850 ng·h/mL; clearance [2, 7]: 29.2 mL/min/kg; half-life [2, 7]: 0.83 h; MRT ([2]; male, SD, rat, plasma, iv, 5 mg/kg, individual animal, read-out: MRT): 1.1 h; Vd ([2]; male, SD, rat, plasma, iv, 5 mg/kg, individual animal, read-out: Vss): 1.93 L/kg; AUC 0 − ∞ ([2]; Mean): 3559 ng·h/mL; Cl ([2]; Mean): 24 mL/min/kg; T1/2 ([2]; Mean): 0.982 h; Vss ([2]; Mean): 1.843 L/kg; AUC 0 − t ([2]; individual animal, 5 mg/kg): 3645 ng·h/mL and 4142 ng·h/mL; AUC 0 − ∞ ([2]; individual animal, 5 mg/kg): 3655 ng·h/mL and 4172 ng·h/mL; Cl ([2]; individual animal, 5 mg/kg): 22.8 mL/min/kg and 20 mL/min/kg; MRT ([2]; individual animal, 5 mg/kg): 1.26 h and 1.57 h; T1/2 ([2]; individual animal, 5 mg/kg): 0.95 h and 1.16 h; Vss ([2]; individual animal, 5 mg/kg): 1.72 L/kg and 1.88 L/kg |
| Cc1c(CNCCCN(C)C)cc2c(N3CCOCC3)nc(-c3cnc(N)cc3C(F)(F)F)nn12 [Compound P-2] | 2.14 | 4.74 | 37600 | 0.62 | 0.0366 | 46 | 0.321 | 18.7 |  |
| COCCCNCc1cc2c(N3CCOCC3)nc(-c3cnc(N)cc3C(F)(F)F)nn2c1C [Compound P-3] |  | -0.12 |  | 2.94 |  | 39.8 |  | 6.72 |  |
| Cc1c(CN2CCC(C(C)(C)O)CC2)cc2c(N3CCOCC3)nc(-c3cnc(N)cc3C(F)(F)F)nn12 [Compound P-5] | 1.36 | 14.9 | 4830 | -2.33 | 0.0196 | 53.2 | 0.424 | -0.6 | selectivity for PI3Kδ (in words) [5]: selective inhibitory effect on PI3Kδ; also recorded: good selectivities for PI3Kδ |
| CCN1CCN(Cc2cc3c(N4CCOCC4)nc(-c4cnc(N)cc4C(F)(F)F)nn3c2C)CC1 [Compound P-6] | 4.57 | 11.8 | 9870 | -4.8 | 0.0353 | 41.4 | 0.624 | 69.7 | selectivity for PI3Kδ (in words) [5]: selective inhibitory effect on PI3Kδ; also recorded: good selectivities for PI3Kδ |
| Cc1c(CN2CCC(N(C)C)CC2)cc2c(N3CCOCC3)nc(-c3cnc(N)cc3C(F)(F)F)nn12 [Compound P-7] | 3.46 | 3.43 | 15300 | -7.96 | 0.0276 | 53.6 | 0.439 | 3.6 | selectivity for PI3Kδ (in words) [5]: selective inhibitory effect on PI3Kδ; also recorded: good selectivities for PI3Kδ |
| Cc1c(CN2CCN(S(C)(=O)=O)CC2)cc2c(N3CCOCC3)nc(-c3cnc(N)cc3C(F)(F)F)nn12 [Compound P-9] | 1.19 | 12.8 | 283 | 31.4 | 0.0237 | 51.2 | 0.0264 | 68.9 |  |
| Cc1c(CN2CCN(S(C)(=O)=O)CC2)cc2c(N3CCOC[C@@H]3C)nc(-c3cnc(N)cc3C(F)(F)F)nn12 [Compound P-10] | 1.77 | 7.84 | 202 | 32.1 | 0.0797 | 39.7 | 0.104 | 80.5 |  |
| CS(=O)(=O)N1CCN(Cc2cc3c(N4CCOCC4)nc(-c4cnc(N)cc4C(F)(F)F)nn3c2Cl)CC1 [Compound P-11] | 1.44 | 15.8 | 248 | 19.4 | 0.0281 | 50.3 | 0.0213 | 72.8 |  |
| Cc1c(CN2CCN(C(=O)C(C)(C)O)CC2)cc2c(N3CCOCC3)nc(-c3cnc(N)cc3C(F)(F)F)nn12 [Compound P-13] |  | 2.34 |  | 2.16 |  | 41.2 |  | 30.5 |  |
| Cc1c(CN2CCN(C(=O)[C@H](C)O)CC2)cc2c(N3CCOCC3)nc(-c3cnc(N)cc3C(F)(F)F)nn12 [Compound P-14] | 2.65 | 3.44 | 1950 | 6.83 | 0.0856 | 63.3 | 0.0775 | 24.8 |  |
| Cc1c(CN2CCN(S(C)(=O)=O)CC2)cc2c(N3CCOCC3)nc(-c3cnc(NC(=O)NC4CC4)cc3C(F)(F)F)nn12 [Compound P-20] | 0.124 | 57.4 | 36.6 | 68.3 | 0.00373 | 83.1 | 0.0108 | 102 |  |
| CCNC(=O)Nc1cc(C(F)(F)F)c(-c2nc(N3CCOCC3)c3cc(CN4CCN(S(C)(=O)=O)CC4)c(C)n3n2)cn1 [Compound P-21] | 0.139 | 46.3 | 37.5 | 74.1 | 0.00622 | 107 | 0.0218 | 89.3 |  |
| Cc1c(CN2CCN(S(C)(=O)=O)CC2)cc2c(N3CCOCC3)nc(-c3cnc(NC(=O)NC(C)C)cc3C(F)(F)F)nn12 [Compound P-22] | 1.54 | 15.1 | 311 | 30.3 | 0.0295 | 46.5 | 0.122 | 50 |  |
| Cc1c(CN2CCN(S(C)(=O)=O)CC2)cc2c(N3CCOCC3)nc(-c3cnc(NC(=O)Nc4ccc(F)cc4)cc3C(F)(F)F)nn12 [Compound P-23] | 0.109 | 32.6 | 47.1 | 67 | 0.0101 | 77.1 | 0.0187 | 77.9 |  |
| CS(=O)(=O)N1CCN(Cc2cc3nc(-c4cccc5[nH]ncc45)nc(N4CCOCC4)c3s2)CC1 [GDC0941, 2-(1H-indazol-4-yl)-6-[[4-(methylsulfonyl)-1-piperazinyl]methyl]-4-(4-morpholinyl)thieno[3,2-D]pyrimidine, reference compound] |  | 21.1 |  |  |  | 56.3 |  | 41.7 |  |
